Reference: US20240238423A9, “TETRAHYDROISOQUINOLINE HETEROBIFUNCTIONAL BCL-XL DEGRADERS” (Treeline Biosciences, Inc., priority 2022, published 2024)

Biological target: T1, Human BCL-XL protein (N-terminal HiBiT tagged BCL-XL in HT1080 cells) (Homo sapiens, UniProt Q07817)
T1 construct: expressed in transfected cells; host or cells: HT-1080 (ATCC CCL-121), stably transduced with lentivirus pLV-UBC-N-HiBiT-BCL-XL-PGK-puro and selected with puromycin
Test: HiBiT based degradation assay
Assay type: cell-based
Conditions: HT1080 cells expressing HiBiT-BCL-XL, 24 h; for Ymin (24 h): BCL-XL degradation normalized with DMSO control; for DC50: BCL-XL degradation, read-out: EC50 (24 h)
Summary of the method: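 This HiBiT degradation assay measured loss of BCL-XL in HT1080 cells that stably express an N-terminal HiBiT-BCL-XL fusion delivered by lentivirus. Cells were added to compound-spotted 384-well plates, and luminescence was read on a PHERAstar FSX reader. Signal was expressed relative to DMSO controls, curves were fitted by four-parameter logistic regression, and for hook-shaped curves the Ymin point served as the bottom plateau when calculating EC50.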

T1 sequence (Q07817 whole entry): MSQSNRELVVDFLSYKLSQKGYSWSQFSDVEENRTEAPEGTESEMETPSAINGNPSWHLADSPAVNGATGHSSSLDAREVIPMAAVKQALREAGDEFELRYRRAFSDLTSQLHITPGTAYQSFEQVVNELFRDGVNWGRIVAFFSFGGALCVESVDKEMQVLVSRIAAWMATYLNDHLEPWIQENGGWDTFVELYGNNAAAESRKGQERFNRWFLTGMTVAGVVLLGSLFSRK

Row | Compound | Ymin (24 h) | DC50 [nM]
1 | Cc1c(OCCCC2CCN(Cc3ccc4c(C5CCC(=O)NC5=O)nn(C)c4c3)CC2)cccc1-c1ccc(N2CCc3cccc(C(=O)Nc4nc5ccccc5s4)c3C2)nc1C(=O)O (stereo not drawn) [Compound 304, 6-(8-(benzo[d]thiazol-2-ylcarbamoyl)-3,4-dihydroisoquinolin-2(1H)-yl)-3-(3-(3-(1-((3-(2,6-dioxopiperidin-3-yl)-1-methyl-1H-indazol-6-yl)methyl)piperidin-4-yl)propoxy)-2-methylphenyl)picolinic acid] | B (50% ≤ Ymin < 70%) | < 100
2 | Cc1c(OCCCC2CCN(CCCc3ccc4c(C5CCC(=O)NC5=O)nn(C)c4c3)CC2)cccc1-c1ccc(N2CCc3cccc(C(=O)Nc4nc5ccccc5s4)c3C2)nc1C(=O)O (stereo not drawn) [Compound 305, 6-(8-(benzo[d]thiazol-2-ylcarbamoyl)-3,4-dihydroisoquinolin-2(1H)-yl)-3-(3-(3-(1-(3-(3-(2,6-dioxopiperidin-3-yl)-1-methyl-1H-indazol-6-yl)propyl)piperidin-4-yl)propoxy)-2-methylphenyl)picolinic acid] | A (Ymin < 50%) | < 100
3 | Cc1c(OCCCC2CCN(C3CCN(c4ccc5c(C6CCC(=O)NC6=O)nn(C)c5c4)CC3)CC2)cccc1-c1ccc(N2CCc3cccc(C(=O)Nc4nc5ccccc5s4)c3C2)nc1C(=O)O (stereo not drawn) [Compound 306, 6-(8-(benzo[d]thiazol-2-ylcarbamoyl)-3,4-dihydroisoquinolin-2(1H)-yl)-3-(3-(3-(1′-(3-(2,6-dioxopiperidin-3-yl)-1-methyl-1H-indazol-6-yl)-[1,4′-bipiperidin]-4-yl)propoxy)-2-methylphenyl)picolinic acid] | A (Ymin < 50%) | < 100
4 | Cc1c(OCCCc2ccc(CC(=O)Nc3ccc4c(C5CCC(=O)NC5=O)nn(C)c4c3)cn2)cccc1-c1ccc(N2CCc3cccc(C(=O)Nc4nc5ccccc5s4)c3C2)nc1C(=O)O (stereo not drawn) [Compound 309, 6-[8-(1,3-benzothiazol-2-ylcarbamoyl)-3,4-dihydro-1H-isoquinolin-2-yl]-3-[3-[3-[5-[2-[[3-(2,6-dioxo-3-piperidyl)-1-methyl-indazol-6-yl]amino]-2-oxo-ethyl]-2-pyridyl]propoxy]-2-methyl-phenyl]pyridine-2-carboxylic acid] | B (50% ≤ Ymin < 70%) | 100 to 1000
5 | Cc1c(O[C@H]2CC[C@@H](CCCC3CCN(c4ccc5c(C6CCC(=O)NC6=O)nn(C)c5c4)CC3)CC2)cccc1-c1ccc(N2CCc3cccc(C(=O)Nc4nc5ccccc5s4)c3C2)nc1C(=O)O (stereo partly drawn) [Compound 311a, 6-(8-(benzo[d]thiazol-2-ylcarbamoyl)-3,4-dihydroisoquinolin-2(1H)-yl)-3-(3-(((1r,4s)-4-(3-(1-(3-(2,6-dioxopiperidin-3-yl)-1-methyl-1H-indazol-6-yl)piperidin-4-yl)propyl)cyclohexyl)oxy)-2-methylphenyl) picolinic acid] | B (50% ≤ Ymin < 70%) | < 100
6 | Cc1c(O[C@H]2CC[C@H](CCCC3CCN(c4ccc5c(C6CCC(=O)NC6=O)nn(C)c5c4)CC3)CC2)cccc1-c1ccc(N2CCc3cccc(C(=O)Nc4nc5ccccc5s4)c3C2)nc1C(=O)O (stereo partly drawn) [Compound 311b, 6-(8-(benzo[d]thiazol-2-ylcarbamoyl)-3,4-dihydroisoquinolin-2(1H)-yl)-3-(3-(((1s,4r)-4-(3-(1-(3-(2,6-dioxopiperidin-3-yl)-1-methyl-1H-indazol-6-yl)piperidin-4-yl)propyl)cyclohexyl)oxy)-2-methylphenyl)picolinic acid] | B (50% ≤ Ymin < 70%) | < 100
7 | Cc1c(OCCCC2CCN(CC3CN(c4ccc5c(C6CCC(=O)NC6=O)nn(C)c5c4)C3)CC2)cccc1-c1ccc(N2CCc3cccc(C(=O)Nc4nc5ccccc5s4)c3C2)nc1C(=O)O (stereo not drawn) [Compound 312, 6-(8-(benzo[d]thiazol-2-ylcarbamoyl)-3,4-dihydroisoquinolin-2(1H)-yl)-3-(3-(3-(1-((1-(3-(2,6-dioxopiperidin-3-yl)-1-methyl-1H-indazol-6-yl)azetidin-3-yl)methyl)piperidin-4-yl)propoxy)-2-methylphenyl)picolinic acid] | A (Ymin < 50%) | < 100
8 | Cn1nc(C2CCC(=O)NC2=O)c2ccc(NC(=O)CN3CCC(CCCOc4cccc(-c5ccc(N6CCc7cccc(C(=O)Nc8nc9ccccc9s8)c7C6)nc5C(=O)O)c4C(F)(F)F)CC3)cc21 (stereo not drawn) [Compound 313, 6-[8-(1,3-benzothiazol-2-ylcarbamoyl)-3,4-dihydro-1H-isoquinolin-2-yl]-3-[3-[3-[1-[2-[[3-(2,6-dioxo-3-piperidyl)-1-methyl-indazol-6-yl]amino]-2-oxo-ethyl]-4-piperidyl]propoxy]-2-(trifluoromethyl)phenyl]pyridine-2-carboxylic acid] | A (Ymin < 50%) | < 100
9 | Cn1nc(C2CCC(=O)NC2=O)c2ccc(NC(=O)CN3CCC(CCCOc4cccc(-c5ccc(N6CCc7cccc(C(=O)Nc8nc9ccccc9s8)c7C6)nc5C(=O)O)c4)CC3)cc21 (stereo not drawn) [Compound 314, 6-(8-(benzo[d]thiazol-2-ylcarbamoyl)-3,4-dihydroisoquinolin-2(1H)-yl)-3-(3-(3-(1-(2-((3-(2,6-dioxopiperidin-3-yl)-1-methyl-1H-indazol-6-yl)amino)-2-oxoethyl)piperidin-4-yl)propoxy)phenyl)picolinic acid] | B (50% ≤ Ymin < 70%) | < 100
10 | Cc1c(O[C@H]2CC[C@H](CCCN3CCN(c4ccc5c(N6CCC(=O)NC6=O)nn(C)c5c4)CC3)CC2)cccc1-c1ccc(N2CCc3cccc(C(=O)Nc4nc5ccccc5s4)c3C2)nc1C(=O)O [Compound 316a, 6-(8-(benzo[d]thiazol-2-ylcarbamoyl)-3,4-dihydroisoquinolin-2(1H)-yl)-3-(3-(((1s,4r)-4-(3-(4-(3-(2,4-dioxotetrahydropyrimidin-1(2H)-yl)-1-methyl-1H-indazol-6-yl)piperazin-1-yl)propyl)cyclohexyl)oxy)-2-methylphenyl)picolinic acid] | A (Ymin < 50%) | < 100
11 | Cc1c(OCCCC2CCN(CC(=O)Nc3ccc4c(N5CCC(=O)NC5=O)nn(C)c4c3)CC2)cccc1-c1ccc(N2CCc3cccc(C(=O)Nc4nc5ccccc5s4)c3C2)nc1C(=O)O [Compound 317, 6-(8-(benzo[d]thiazol-2-ylcarbamoyl)-3,4-dihydroisoquinolin-2(1H)-yl)-3-(3-(3-(1-(2-((3-(2,4-dioxotetrahydropyrimidin-1(2H)-yl)-1-methyl-1H-indazol-6-yl)amino)-2-oxoethyl)piperidin-4-yl)propoxy)-2-methylphenyl)picolinic acid] | B (50% ≤ Ymin < 70%) | < 100
12 | Cc1c(O[C@H]2CC[C@H](CCCN3CCN(c4ccc5c(C6CCC(=O)NC6=O)nn(C)c5c4)C(C)(C)C3)CC2)cccc1-c1ccc(N2CCc3cccc(C(=O)Nc4nc5ccccc5s4)c3C2)nc1C(=O)O (stereo partly drawn) [Compound 318a, 6-(8-(benzo[d]thiazol-2-ylcarbamoyl)-3,4-dihydroisoquinolin-2(1H)-yl)-3-(3-(((1s,4r)-4-(3-(4-(3-(2,6-dioxopiperidin-3-yl)-1-methyl-1H-indazol-6-yl)-3,3-dimethylpiperazin-1-yl)propyl)cyclohexyl)oxy)-2-methylphenyl)picolinic acid] | A (Ymin < 50%) | < 100
